Assay results: patent US20170008888A1 (KYORIN PHARMACEUTICAL CO., LTD., priority 2014, published 2017)
Like-named read-outs stand apart in the source and are kept apart here.

How the values were obtained:
Type in all cases: binding
JAK1 = target: T1, JAK1 (Homo sapiens, UniProt P23458); assay: Probe-based (AX9989) kinase profiling in Jurkat lysate: JAK1; conditions: for inhibition at 0.1 µM: screening concentration 0.1 μM
T1 construct: screened for activity against several kinases in Jurkat cells; endogenous in cells; host or cells: Jurkat cell lysate
T1 sequence (P23458 whole entry): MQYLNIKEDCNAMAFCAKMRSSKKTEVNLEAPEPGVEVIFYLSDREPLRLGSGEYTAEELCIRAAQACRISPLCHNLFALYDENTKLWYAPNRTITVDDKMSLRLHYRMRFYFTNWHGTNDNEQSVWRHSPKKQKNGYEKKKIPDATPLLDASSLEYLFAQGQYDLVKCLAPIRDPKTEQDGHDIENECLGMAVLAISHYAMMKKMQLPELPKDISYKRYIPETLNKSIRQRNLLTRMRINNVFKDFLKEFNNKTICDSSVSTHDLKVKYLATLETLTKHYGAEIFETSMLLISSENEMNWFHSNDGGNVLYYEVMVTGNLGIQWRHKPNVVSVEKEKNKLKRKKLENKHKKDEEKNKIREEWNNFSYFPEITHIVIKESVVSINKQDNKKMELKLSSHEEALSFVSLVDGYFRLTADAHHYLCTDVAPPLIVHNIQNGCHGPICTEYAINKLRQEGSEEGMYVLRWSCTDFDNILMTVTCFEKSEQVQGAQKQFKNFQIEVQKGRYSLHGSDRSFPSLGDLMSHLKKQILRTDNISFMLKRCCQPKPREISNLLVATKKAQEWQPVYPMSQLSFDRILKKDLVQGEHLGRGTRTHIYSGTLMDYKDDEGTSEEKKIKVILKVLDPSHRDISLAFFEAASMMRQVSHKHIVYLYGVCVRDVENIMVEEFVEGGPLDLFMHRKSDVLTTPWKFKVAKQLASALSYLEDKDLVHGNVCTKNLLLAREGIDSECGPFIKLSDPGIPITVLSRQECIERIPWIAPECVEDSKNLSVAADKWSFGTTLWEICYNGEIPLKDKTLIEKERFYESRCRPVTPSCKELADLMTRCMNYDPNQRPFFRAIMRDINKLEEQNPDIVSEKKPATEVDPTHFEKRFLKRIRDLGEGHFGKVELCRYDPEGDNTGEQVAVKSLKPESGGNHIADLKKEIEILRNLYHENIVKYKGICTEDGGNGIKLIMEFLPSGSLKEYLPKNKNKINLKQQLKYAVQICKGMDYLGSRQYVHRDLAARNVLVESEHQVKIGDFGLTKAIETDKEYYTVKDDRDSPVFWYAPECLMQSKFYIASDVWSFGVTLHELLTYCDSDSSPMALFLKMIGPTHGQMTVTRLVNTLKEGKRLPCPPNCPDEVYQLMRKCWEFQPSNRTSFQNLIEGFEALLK
Summary of the method: (§1)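 Gel-filtered Jurkat lysate (HEPES pH 7.5, 20 mM MnCl2, 5 mg/ml) was pre-incubated 15 min with compound at room temperature, then labelled with 5 μM acyl-phosphate ATP probe AX9989. Tryptic probe-labelled active-site peptides were streptavidin-captured and quantified by LC/MS. Percent inhibition reflected the decrease in labelled-peptide intensity versus no compound.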

ABL or ARG = assay: Probe-based (AX9989) kinase profiling in Jurkat lysate: ABL or ARG
Summary of the method: as §1

TAO2 = target: T2, TAO2 (Homo sapiens, UniProt Q9UL54); assay: Probe-based (AX9989) kinase profiling in Jurkat lysate: TAO2; conditions: for inhibition at 0.1 µM: screening concentration 0.1 μM
T2 construct: screened for activity against several kinases in Jurkat cells; endogenous in cells; host or cells: Jurkat cell lysate
T2 sequence (Q9UL54 1-1235): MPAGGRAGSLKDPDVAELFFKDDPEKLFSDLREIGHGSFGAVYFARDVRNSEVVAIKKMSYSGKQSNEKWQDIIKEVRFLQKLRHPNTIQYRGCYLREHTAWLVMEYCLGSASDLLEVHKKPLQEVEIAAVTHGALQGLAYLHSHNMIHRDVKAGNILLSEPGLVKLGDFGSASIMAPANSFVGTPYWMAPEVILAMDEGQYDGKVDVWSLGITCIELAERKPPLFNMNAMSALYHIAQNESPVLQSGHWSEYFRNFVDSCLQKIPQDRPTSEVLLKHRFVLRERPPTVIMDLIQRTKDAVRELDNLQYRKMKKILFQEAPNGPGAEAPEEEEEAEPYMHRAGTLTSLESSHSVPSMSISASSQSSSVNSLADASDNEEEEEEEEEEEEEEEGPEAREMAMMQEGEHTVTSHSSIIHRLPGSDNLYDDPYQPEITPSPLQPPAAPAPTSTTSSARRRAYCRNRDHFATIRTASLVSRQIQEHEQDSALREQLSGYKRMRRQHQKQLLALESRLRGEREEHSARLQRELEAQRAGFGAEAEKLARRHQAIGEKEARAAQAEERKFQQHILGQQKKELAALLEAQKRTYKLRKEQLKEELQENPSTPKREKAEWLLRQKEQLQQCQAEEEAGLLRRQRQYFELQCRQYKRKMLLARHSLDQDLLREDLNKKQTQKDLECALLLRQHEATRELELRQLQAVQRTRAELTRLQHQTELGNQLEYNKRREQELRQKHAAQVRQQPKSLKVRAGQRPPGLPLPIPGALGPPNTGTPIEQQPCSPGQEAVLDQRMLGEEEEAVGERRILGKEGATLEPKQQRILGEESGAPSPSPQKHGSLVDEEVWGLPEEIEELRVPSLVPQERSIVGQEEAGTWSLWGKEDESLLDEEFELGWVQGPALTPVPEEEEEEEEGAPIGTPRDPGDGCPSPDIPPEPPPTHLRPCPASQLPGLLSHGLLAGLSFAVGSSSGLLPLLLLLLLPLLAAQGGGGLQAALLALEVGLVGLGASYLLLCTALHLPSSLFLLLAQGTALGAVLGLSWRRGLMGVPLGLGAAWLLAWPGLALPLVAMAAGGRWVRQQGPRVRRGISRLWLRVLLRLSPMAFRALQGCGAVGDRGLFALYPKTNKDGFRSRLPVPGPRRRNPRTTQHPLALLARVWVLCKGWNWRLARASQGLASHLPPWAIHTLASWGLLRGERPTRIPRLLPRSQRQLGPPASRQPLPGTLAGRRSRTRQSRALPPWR
Summary of the method: as §1

AMPKa1 or AMPKa2 = assay: Probe-based (AX9989) kinase profiling in Jurkat lysate: AMPKa1 or AMPKa2
Summary of the method: as §1

ERK5 = target: T3, ERK5 (Homo sapiens, UniProt Q13164); assay: Probe-based (AX9989 acyl phosphate ATP probe) kinase profiling in Jurkat lysate: ERK5; conditions: for IC50: Jurkat lysate; for inhibition at 0.1 µM: screening concentration 0.1 μM
T3 construct: screened for activity against several kinases in Jurkat cells; endogenous in cells; host or cells: Jurkat cell lysate
T3 sequence (Q13164 whole entry): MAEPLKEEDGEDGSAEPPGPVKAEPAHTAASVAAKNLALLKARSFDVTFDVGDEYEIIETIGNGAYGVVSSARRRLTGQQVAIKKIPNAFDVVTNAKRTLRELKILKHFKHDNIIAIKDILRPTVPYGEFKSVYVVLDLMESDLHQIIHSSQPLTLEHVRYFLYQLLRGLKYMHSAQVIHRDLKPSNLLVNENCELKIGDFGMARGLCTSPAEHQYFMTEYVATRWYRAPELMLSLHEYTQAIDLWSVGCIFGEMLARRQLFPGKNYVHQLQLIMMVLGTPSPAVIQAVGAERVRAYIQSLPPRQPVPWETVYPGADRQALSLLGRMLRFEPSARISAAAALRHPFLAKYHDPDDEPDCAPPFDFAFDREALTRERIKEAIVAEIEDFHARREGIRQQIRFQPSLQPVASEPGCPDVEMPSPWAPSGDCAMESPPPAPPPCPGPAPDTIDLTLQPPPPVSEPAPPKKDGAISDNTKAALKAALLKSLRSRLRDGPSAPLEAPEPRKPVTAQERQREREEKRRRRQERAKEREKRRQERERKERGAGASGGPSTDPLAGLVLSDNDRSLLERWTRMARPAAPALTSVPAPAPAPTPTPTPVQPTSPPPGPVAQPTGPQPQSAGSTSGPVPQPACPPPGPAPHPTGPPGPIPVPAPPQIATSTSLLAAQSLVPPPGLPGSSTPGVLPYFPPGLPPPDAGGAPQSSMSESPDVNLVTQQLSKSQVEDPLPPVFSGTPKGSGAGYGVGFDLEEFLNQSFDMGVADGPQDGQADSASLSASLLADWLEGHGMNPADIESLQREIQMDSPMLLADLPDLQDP
Summary of the method: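 Gel-filtered Jurkat lysate (5 mg/ml, 20 mM MnCl2) preincubated 15 min at room temperature with compound, then labelled with 5 μM AX9989 acyl phosphate ATP probe. Probe-labelled ERK5 active-site peptides quantified by LC/MS after trypsin digestion and streptavidin capture; IC50 calculated from percent inhibition at the screening concentration.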

AurA = target: T4, AurA (Homo sapiens, UniProt O14965); assay: Probe-based (AX9989) kinase profiling in Jurkat lysate: AurA; conditions: for inhibition at 0.1 µM: screening concentration 0.1 μM
T4 construct: screened for activity against several kinases in Jurkat cells; endogenous in cells; host or cells: Jurkat cell lysate
T4 sequence (O14965 1-403): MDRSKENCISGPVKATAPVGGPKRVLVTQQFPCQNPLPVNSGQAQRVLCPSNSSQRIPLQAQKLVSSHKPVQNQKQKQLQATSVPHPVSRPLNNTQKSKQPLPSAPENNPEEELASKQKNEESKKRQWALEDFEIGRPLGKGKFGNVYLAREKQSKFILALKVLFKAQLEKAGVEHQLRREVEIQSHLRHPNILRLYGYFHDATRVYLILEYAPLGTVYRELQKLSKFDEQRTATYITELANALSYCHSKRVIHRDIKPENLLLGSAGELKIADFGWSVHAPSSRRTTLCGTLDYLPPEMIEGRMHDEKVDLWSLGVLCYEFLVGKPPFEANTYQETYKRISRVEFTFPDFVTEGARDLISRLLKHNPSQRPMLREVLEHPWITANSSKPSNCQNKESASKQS
Summary of the method: as §1

[1] = read-out: Kinase inhibition % at indicated screening concentration: JAK1
[2] = read-out: Kinase inhibition % at indicated screening concentration: TAO2
[3] = calculated from percent inhibition of AX9989 labeling and the screening concentration
[4] = read-out: Kinase inhibition % at indicated screening concentration: ERK5
[5] = read-out: Kinase inhibition % at indicated screening concentration: AurA
[6] = screening concentration 1.0 μM, read-out: Kinase inhibition % at indicated screening concentration: JAK1
[7] = screening concentration 1.0 μM, read-out: Kinase inhibition % at indicated screening concentration: TAO2
[8] = screening concentration 1.0 μM, read-out: Kinase inhibition % at indicated screening concentration: ERK5
[9] = screening concentration 1.0 μM, read-out: Kinase inhibition % at indicated screening concentration: AurA
[10] = calculated from percent inhibition and screening concentration, AX9989 probe

Compound: CCOc1cc(C(N)=O)ccc1Nc1cc2c(cn1)N(C)C(=O)c1ccccc1N2C [Compound 51]
- inhibition at 0.1 µM (JAK1; [1]): ≤ 35%
- Kinase inhibition % at indicated screening concentration: ABL or ARG (ABL or ARG; screening concentration 0.1 μM): E (E is ≦35%)
- inhibition at 0.1 µM (TAO2; [2]): ≤ 35%
- Kinase inhibition % at indicated screening concentration: AMPKa1 or AMPKa2 (AMPKa1 or AMPKa2; screening concentration 0.1 μM): E (E is ≦35%)
- IC50 (ERK5; [3]): 101 to 500 nM
- inhibition at 0.1 µM (ERK5; [4]): 35 to 50%
- inhibition at 0.1 µM (AurA; [5]): ≤ 35%

Compound: CCOc1cc(C(=O)NCCc2ccncc2)ccc1Nc1cc2c(cn1)N(C)C(=O)c1ccccc1N2C [Compound 107]
- inhibition at 1 µM (JAK1; [6]): ≤ 35%
- Kinase inhibition % at indicated screening concentration: ABL or ARG (ABL or ARG; screening concentration 1.0 μM): E (E is ≦35%)
- inhibition at 1 µM (TAO2; [7]): ≤ 35%
- Kinase inhibition % at indicated screening concentration: AMPKa1 or AMPKa2 (AMPKa1 or AMPKa2; screening concentration 1.0 μM): E (E is ≦35%)
- IC50 (ERK5; [3]): > 500 nM
- inhibition at 1 µM (ERK5; [8]): 50 to 75%
- inhibition at 1 µM (AurA; [9]): ≤ 35%

Compound: CCOc1cc(C(=O)N2CCN(CCN(C)C)CC2)ccc1Nc1cc2c(cn1)N(C)C(=O)c1ccccc1N2C [Compound T14]
- inhibition at 1 µM (JAK1; screening concentration 1 μM, read-out: JAK1 Inhibition % at indicated screening concentration): ≤ 35%
- ABL or ARG Inhibition % at indicated screening concentration (ABL or ARG; screening concentration 1 μM): E (E is ≦35%)
- inhibition at 1 µM (TAO2; screening concentration 1 μM, read-out: TAO2 Inhibition % at indicated screening concentration): ≤ 35%
- AMPKa1 or AMPKa2 Inhibition % at indicated screening concentration (AMPKa1 or AMPKa2; screening concentration 1 μM): E (E is ≦35%)
- IC50 (ERK5; [10]): ≤ 50 nM
- inhibition at 1 µM (ERK5; screening concentration 1 μM, read-out: ERK5 Inhibition % at indicated screening concentration): > 90%
- inhibition at 1 µM (AurA; screening concentration 1 μM, read-out: AurA Inhibition % at indicated screening concentration): ≤ 35%

Compound: CN1C(=O)c2ccccc2N(C)c2cc(NC3CCC(C(=O)NC4CCOCC4)CC3)ncc21 (stereo not shown) [Compound 64]
- inhibition at 1 µM (JAK1; [6]): ≤ 35%
- Kinase inhibition % at indicated screening concentration: ABL or ARG (ABL or ARG; screening concentration 1.0 μM): E (E is ≦35%)
- inhibition at 1 µM (TAO2; [7]): ≤ 35%
- Kinase inhibition % at indicated screening concentration: AMPKa1 or AMPKa2 (AMPKa1 or AMPKa2; screening concentration 1.0 μM): E (E is ≦35%)
- IC50 (ERK5; [3]): 101 to 500 nM
- inhibition at 1 µM (ERK5; [8]): 75 to 90%
- inhibition at 1 µM (AurA; [9]): ≤ 35%

Compound: COc1cc(C(=O)N2CCC(N(C)C)C2)ccc1Nc1cc2c(cn1)N(C)C(=O)c1ccccc1N2C (stereo not shown) [Compound 70]
- inhibition at 0.1 µM (JAK1; [1]): ≤ 35%
- Kinase inhibition % at indicated screening concentration: ABL or ARG (ABL or ARG; screening concentration 0.1 μM): E (E is ≦35%)
- inhibition at 0.1 µM (TAO2; [2]): ≤ 35%
- Kinase inhibition % at indicated screening concentration: AMPKa1 or AMPKa2 (AMPKa1 or AMPKa2; screening concentration 0.1 μM): E (E is ≦35%)
- IC50 (ERK5; [3]): ≤ 50 nM
- inhibition at 0.1 µM (ERK5; [4]): 50 to 75%
- inhibition at 0.1 µM (AurA; [5]): ≤ 35%

Compound: CCOc1cc(C(=O)N2CCCNCC2)ccc1Nc1cc2c(cn1)N(C)C(=O)c1ccccc1N2C [Compound 71]
- inhibition at 1 µM (JAK1; [6]): ≤ 35%
- Kinase inhibition % at indicated screening concentration: ABL or ARG (ABL or ARG; screening concentration 1.0 μM): E (E is ≦35%)
- inhibition at 1 µM (TAO2; [7]): ≤ 35%
- Kinase inhibition % at indicated screening concentration: AMPKa1 or AMPKa2 (AMPKa1 or AMPKa2; screening concentration 1.0 μM): E (E is ≦35%)
- IC50 (ERK5; [3]): ≤ 50 nM
- inhibition at 1 µM (ERK5; [8]): > 90%
- inhibition at 1 µM (AurA; [9]): ≤ 35%

Compound: CCOc1cc(C(=O)N2CCN(C3CCN(C)CC3)CC2)ccc1Nc1cc2c(cn1)N(C)C(=O)c1c(F)cccc1O2 [Compound T102]
- inhibition at 10 µM (JAK1; screening concentration 10 μM, read-out: JAK1 Inhibition % at indicated screening concentration): ≤ 35%
- ABL or ARG Inhibition % at indicated screening concentration (ABL or ARG; screening concentration 10 μM): E (E is ≦35%)
- inhibition at 10 µM (TAO2; screening concentration 10 μM, read-out: TAO2 Inhibition % at indicated screening concentration): ≤ 35%
- AMPKa1 or AMPKa2 Inhibition % at indicated screening concentration (AMPKa1 or AMPKa2; screening concentration 10 μM): E (E is ≦35%)
- IC50 (ERK5; [10]): 101 to 500 nM
- inhibition at 10 µM (ERK5; screening concentration 10 μM, read-out: ERK5 Inhibition % at indicated screening concentration): > 90%
- inhibition at 10 µM (AurA; screening concentration 10 μM, read-out: AurA Inhibition % at indicated screening concentration): ≤ 35%
